The values below are quoted from earlier work in patent US5385885A, “Inhibition of smooth muscle cell proliferation by antistasin and tick anticoagulant peptide” (priority 1991, dated 1995).

For data set [1], the system named is smooth muscle cell proliferative response to balloon catheter injury. As to conditions: rat model; Powell et al.; cited from earlier work.
In data set [2] the test system is smooth muscle proliferative responses. As to conditions: doses sufficiently high to prevent platelet adherence and release; Harker et al.; cited from earlier work.
Data set [3] concerns smooth muscle cells of rat carotid arteries. As to conditions: site-delivered; after balloon catheterization; Edelman et al.; cited from earlier work.

`CCOC(=O)[C@H](CCc1ccccc1)N[C@H]1CCCN2CCC[C@@H](C(=O)O)N2C1=O` [cilazapril]: the “Smooth muscle cell proliferative response to balloon catheter injury” value in data set [1] is on record as “specifically inhibits”. As for `OCCN(CCO)c1nc(N2CCCCC2)c2nc(N(CCO)CCO)nc(N3CCCCC3)c2n1` [dipyridamole], the “Smooth muscle proliferative responses” value in data set [2] is “prevented”. With heparin, the “Proliferation of smooth muscle cells” value in data set [3] was “effectively diminished”.
